Assay results published in ChEMBL document CHEMBL5465560, “Selectivity Literature for EUbOPEN Chemogenomic Library” (2024).

Tests used:
[1] = target: Serine/threonine-protein kinase PAK 4 (Homo sapiens, UniProt O96013); assay: Selectivity interaction (Kinase panel (literature)) EUB0001199aCl PAK4; details: at 1 µM
[2] = target: Dual specificity protein kinase CLK1 (Homo sapiens, UniProt P49759); assay: Selectivity interaction (KinomeScan (DiscoverX)) EUB0000666a CLK1; details: at 10 µM
D(2) dopamine receptor = D(2) dopamine receptor (Homo sapiens, UniProt P14416); assay: Selectivity interaction (Eurofins CEREP Diversity Profile (receptors and ion channels)) EUB0000279b DRD2; details: at 10 µM
Chain of D(2) dopamine receptor (P14416 whole entry): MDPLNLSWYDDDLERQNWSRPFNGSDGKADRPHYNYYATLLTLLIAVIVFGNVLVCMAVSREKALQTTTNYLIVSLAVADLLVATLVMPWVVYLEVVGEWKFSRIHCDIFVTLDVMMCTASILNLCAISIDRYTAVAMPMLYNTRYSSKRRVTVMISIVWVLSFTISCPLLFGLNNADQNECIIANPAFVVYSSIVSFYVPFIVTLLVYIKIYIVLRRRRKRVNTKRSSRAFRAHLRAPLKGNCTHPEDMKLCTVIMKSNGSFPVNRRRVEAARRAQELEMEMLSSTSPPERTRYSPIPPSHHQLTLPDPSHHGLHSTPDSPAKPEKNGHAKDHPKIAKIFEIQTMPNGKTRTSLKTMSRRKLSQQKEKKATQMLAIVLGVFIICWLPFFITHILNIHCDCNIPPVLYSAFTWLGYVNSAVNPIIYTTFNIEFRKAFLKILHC

[3] = target: Myosin-IIIa (Homo sapiens) (UniProt Q8NEV4); assay: Selectivity interaction (KinomeScan (DiscoverX)) EUB0001079a MYO3A; details: at 1 µM
[4] = target: Rho-associated protein kinase 2 (Homo sapiens, UniProt O75116); assay: Selectivity interaction (KinomeScan (DiscoverX)) EUB0001079a ROCK2; details: at 1 µM
Chain of Rho-associated protein kinase 2 (O75116 whole entry, looked up): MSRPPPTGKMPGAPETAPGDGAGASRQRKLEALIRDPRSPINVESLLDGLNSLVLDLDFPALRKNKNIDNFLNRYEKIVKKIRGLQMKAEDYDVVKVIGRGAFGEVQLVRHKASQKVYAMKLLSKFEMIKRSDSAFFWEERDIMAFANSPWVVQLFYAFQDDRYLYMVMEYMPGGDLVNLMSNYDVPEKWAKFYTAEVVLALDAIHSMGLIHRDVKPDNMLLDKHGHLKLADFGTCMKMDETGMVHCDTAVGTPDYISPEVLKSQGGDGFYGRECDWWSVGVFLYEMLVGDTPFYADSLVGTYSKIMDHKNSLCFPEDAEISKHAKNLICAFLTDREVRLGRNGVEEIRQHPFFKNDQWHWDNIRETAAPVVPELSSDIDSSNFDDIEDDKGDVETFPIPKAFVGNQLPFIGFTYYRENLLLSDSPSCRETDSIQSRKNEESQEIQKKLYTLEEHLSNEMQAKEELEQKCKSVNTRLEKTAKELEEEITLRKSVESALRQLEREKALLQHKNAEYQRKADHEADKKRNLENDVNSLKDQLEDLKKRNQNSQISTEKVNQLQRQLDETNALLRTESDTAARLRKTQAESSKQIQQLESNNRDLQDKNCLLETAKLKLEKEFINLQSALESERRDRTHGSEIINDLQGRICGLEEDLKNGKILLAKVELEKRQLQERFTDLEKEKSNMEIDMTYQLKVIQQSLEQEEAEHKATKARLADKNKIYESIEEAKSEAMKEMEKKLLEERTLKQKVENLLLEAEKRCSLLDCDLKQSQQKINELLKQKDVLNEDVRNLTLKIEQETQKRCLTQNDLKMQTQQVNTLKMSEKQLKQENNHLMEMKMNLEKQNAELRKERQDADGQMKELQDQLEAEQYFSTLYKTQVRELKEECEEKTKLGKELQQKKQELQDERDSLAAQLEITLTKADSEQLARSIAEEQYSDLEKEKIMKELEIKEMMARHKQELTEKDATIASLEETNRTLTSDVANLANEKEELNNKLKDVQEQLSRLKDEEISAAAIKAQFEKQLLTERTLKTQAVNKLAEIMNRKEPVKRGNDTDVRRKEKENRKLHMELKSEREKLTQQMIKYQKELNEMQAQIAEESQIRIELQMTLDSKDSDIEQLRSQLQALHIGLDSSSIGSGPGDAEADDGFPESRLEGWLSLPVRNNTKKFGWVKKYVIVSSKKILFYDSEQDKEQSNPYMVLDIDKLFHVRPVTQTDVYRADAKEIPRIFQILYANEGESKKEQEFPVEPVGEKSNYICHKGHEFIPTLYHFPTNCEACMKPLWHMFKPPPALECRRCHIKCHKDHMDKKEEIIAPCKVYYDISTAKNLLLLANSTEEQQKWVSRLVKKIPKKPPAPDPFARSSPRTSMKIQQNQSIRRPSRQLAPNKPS

[5] = target: Leukocyte tyrosine kinase receptor (Homo sapiens, UniProt P29376); details: at 10 µM
Chain of Leukocyte tyrosine kinase receptor (P29376 whole entry): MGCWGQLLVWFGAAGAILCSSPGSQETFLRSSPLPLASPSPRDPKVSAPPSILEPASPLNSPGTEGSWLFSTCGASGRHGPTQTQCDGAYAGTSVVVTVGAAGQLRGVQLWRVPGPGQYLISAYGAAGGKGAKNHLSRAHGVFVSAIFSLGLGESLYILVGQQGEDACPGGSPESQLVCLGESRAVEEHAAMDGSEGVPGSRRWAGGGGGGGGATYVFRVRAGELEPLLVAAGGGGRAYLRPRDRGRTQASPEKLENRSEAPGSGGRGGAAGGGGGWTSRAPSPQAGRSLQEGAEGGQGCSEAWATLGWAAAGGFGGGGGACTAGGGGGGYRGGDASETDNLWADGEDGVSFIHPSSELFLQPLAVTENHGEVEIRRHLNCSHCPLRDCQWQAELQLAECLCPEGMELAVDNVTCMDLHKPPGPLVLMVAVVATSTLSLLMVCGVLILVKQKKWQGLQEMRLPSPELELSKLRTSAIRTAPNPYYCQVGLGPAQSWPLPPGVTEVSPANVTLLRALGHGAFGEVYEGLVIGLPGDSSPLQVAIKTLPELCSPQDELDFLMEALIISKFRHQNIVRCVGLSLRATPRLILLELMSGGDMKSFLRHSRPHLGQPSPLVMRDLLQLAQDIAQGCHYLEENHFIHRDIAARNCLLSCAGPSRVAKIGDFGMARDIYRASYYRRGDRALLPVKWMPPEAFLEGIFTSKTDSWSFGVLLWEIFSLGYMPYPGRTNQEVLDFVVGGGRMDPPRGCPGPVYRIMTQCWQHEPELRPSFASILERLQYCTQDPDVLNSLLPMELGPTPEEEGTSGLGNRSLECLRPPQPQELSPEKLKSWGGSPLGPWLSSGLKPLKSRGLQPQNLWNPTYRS

Peregrin (Homo sapiens) = target: T1, Peregrin (Homo sapiens) (UniProt P55201); assay: Selectivity interaction (Bromodomain panel (DSF asssay)) EUB0000270b BRPF1
T1 sequence (whole entry): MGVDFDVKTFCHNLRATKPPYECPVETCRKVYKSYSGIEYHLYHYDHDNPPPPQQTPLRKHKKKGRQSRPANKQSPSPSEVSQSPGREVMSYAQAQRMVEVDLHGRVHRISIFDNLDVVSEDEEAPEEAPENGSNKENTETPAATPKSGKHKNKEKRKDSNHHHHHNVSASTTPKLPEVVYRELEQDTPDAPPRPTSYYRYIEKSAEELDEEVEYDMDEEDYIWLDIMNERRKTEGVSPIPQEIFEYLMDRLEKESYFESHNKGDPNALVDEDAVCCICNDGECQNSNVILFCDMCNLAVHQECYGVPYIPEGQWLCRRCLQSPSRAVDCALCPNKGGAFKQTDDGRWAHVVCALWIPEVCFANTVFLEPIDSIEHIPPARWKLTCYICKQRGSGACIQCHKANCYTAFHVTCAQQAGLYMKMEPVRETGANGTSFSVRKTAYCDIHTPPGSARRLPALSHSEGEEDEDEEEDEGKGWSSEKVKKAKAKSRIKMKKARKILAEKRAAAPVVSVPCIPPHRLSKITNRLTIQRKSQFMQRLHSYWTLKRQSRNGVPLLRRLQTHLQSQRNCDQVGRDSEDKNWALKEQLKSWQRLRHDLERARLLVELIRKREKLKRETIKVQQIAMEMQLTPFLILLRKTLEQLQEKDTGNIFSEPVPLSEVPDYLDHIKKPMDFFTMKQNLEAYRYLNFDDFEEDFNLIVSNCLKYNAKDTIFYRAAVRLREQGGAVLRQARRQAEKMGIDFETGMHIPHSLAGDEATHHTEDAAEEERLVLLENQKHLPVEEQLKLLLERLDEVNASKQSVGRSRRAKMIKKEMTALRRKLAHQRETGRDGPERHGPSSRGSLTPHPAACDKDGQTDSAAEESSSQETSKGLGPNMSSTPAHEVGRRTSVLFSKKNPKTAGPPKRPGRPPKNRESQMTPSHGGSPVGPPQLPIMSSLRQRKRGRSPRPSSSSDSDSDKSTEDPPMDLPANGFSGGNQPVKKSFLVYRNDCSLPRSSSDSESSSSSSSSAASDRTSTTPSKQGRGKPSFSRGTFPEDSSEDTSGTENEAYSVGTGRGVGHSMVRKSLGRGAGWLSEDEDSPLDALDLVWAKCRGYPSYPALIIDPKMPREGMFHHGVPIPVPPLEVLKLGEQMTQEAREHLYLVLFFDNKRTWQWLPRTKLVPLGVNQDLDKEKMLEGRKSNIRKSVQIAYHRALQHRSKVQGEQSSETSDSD

[6] = target: T2, Dual specificity mitogen-activated protein kinase kinase 6 (Homo sapiens) (UniProt P52564); assay: Selectivity interaction (ActivX KiNativ screen (kinase selectivity in THP-1 cell lysates)) EUB0000639a MAP2K6; type: subcellular; details: lysate, at 1 µM
T2 sequence (whole entry): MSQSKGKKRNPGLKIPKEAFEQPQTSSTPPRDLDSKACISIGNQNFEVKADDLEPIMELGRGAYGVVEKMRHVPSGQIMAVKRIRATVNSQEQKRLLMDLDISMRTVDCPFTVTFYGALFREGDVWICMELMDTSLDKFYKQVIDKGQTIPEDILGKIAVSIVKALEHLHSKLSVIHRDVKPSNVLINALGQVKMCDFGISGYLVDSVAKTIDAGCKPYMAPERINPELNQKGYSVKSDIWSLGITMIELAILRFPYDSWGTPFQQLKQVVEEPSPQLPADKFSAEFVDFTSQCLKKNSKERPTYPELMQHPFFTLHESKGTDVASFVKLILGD

[7] = target: Serine/threonine-protein kinase 24 (Homo sapiens) (UniProt Q9Y6E0); assay: Selectivity interaction (ActivX KiNativ screen (kinase selectivity in THP-1 cell lysates)) EUB0000639a STK24; type: subcellular; details: lysate, at 0.2 µM
[8] = target: Serine/threonine-protein kinase Nek6 (Homo sapiens) (UniProt Q9HC98); assay: Selectivity interaction (ActivX KiNativ screen (kinase selectivity in THP-1 cell lysates)) EUB0000639a NEK6; type: subcellular; details: lysate
Chain of Serine/threonine-protein kinase Nek6 (Homo sapiens) (Q9HC98 whole entry): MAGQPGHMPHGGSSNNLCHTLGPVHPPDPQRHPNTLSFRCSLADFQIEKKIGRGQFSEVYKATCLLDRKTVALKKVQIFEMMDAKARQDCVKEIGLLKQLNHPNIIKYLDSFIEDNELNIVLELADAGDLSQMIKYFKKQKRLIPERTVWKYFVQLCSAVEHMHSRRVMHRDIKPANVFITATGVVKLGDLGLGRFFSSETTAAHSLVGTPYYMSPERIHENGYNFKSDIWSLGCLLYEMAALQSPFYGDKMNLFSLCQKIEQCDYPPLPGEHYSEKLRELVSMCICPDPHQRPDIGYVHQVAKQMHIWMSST

[9] = target: Serine/threonine-protein kinase SMG1 (Homo sapiens) (UniProt Q96Q15); assay: Selectivity interaction (ActivX KiNativ screen (kinase selectivity in THP-1 cell lysates)) EUB0000639a SMG1; type: subcellular; details: lysate, at 0.01 µM
[10] = target: Phosphatidylinositol 4-phosphate 5-kinase type-1 gamma (Homo sapiens) (UniProt O60331); assay: Selectivity interaction (Ambit KINOMEscan and KiNATiv profiling in Jurkat cells) EUB0000090b PIP5K1C; type: cell-based; details: at 1 µM
[11] = tested on: Tyrosine-protein kinase ABL1 (Homo sapiens), P00519 [E255K]; assay: (§1) Selectivity interaction (KinomeScan (DiscoverX)) EUB0000655a ABL1; details: at 10 µM
[12] = tested on: Tyrosine-protein kinase ABL1 (Homo sapiens), P00519 [F317I]; assay: as §1; details: at 10 µM
[13] = tested on: Tyrosine-protein kinase ABL1 (Homo sapiens), P00519 [F317L]; assay: as §1; details: at 10 µM
[14] = tested on: Tyrosine-protein kinase ABL1 (Homo sapiens), P00519 [H396P]; assay: as §1; details: at 10 µM
[15] = tested on: Tyrosine-protein kinase ABL1 (Homo sapiens), P00519 [M351T]; assay: as §1; details: at 10 µM
[16] = tested on: Tyrosine-protein kinase ABL1 (Homo sapiens), P00519 [Q252H]; assay: as §1; details: at 10 µM
[17] = tested on: Tyrosine-protein kinase ABL1 (Homo sapiens), P00519 [T315I]; assay: as §1; details: at 10 µM
[18] = tested on: Tyrosine-protein kinase ABL1 (Homo sapiens), P00519 [Y253F]; assay: as §1; details: at 10 µM
[19] = target: Tyrosine-protein kinase ABL1 (Homo sapiens, UniProt P00519); assay: as §1; details: at 10 µM
[20] = target: Ribosomal protein S6 kinase alpha-4 (Homo sapiens) (UniProt O75676); assay: Selectivity interaction (KinomeScan (DiscoverX)) EUB0000607a RPS6KA4; details: at 10 µM
Chain of Ribosomal protein S6 kinase alpha-4 (Homo sapiens) (O75676 whole entry, looked up): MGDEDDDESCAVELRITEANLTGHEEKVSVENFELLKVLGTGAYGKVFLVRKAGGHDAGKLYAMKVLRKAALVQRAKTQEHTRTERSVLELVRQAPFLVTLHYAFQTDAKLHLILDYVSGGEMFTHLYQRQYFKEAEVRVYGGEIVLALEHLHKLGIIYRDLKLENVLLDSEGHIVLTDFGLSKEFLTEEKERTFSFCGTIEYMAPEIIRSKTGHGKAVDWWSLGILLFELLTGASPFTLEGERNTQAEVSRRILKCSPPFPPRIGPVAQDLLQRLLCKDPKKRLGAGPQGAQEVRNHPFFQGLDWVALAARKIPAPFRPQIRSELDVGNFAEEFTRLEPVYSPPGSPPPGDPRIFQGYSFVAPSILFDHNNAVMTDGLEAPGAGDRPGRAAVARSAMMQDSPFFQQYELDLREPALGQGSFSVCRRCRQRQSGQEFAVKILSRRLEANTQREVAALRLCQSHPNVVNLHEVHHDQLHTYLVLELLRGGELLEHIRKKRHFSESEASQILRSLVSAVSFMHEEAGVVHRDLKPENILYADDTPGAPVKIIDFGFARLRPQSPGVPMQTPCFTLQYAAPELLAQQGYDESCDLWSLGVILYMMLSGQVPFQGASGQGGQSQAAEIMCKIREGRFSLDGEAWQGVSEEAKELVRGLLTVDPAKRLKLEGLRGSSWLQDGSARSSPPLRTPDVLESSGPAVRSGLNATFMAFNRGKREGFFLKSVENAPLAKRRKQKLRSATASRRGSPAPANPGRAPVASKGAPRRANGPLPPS

Chain of Dual specificity protein kinase CLK1 (P49759 whole entry, looked up): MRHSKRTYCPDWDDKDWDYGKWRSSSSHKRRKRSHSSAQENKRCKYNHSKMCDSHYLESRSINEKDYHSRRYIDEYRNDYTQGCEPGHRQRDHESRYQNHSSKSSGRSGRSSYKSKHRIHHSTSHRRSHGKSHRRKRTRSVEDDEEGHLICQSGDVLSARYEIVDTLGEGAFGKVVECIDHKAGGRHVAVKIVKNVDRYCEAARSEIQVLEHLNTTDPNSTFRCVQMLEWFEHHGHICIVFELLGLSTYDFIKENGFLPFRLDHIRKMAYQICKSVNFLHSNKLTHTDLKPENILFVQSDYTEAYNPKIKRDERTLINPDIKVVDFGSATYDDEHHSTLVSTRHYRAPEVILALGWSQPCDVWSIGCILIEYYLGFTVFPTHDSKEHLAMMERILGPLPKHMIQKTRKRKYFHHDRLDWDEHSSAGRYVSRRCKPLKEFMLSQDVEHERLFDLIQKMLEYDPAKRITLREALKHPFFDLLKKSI
Chain of Serine/threonine-protein kinase PAK 4 (O96013 whole entry, looked up): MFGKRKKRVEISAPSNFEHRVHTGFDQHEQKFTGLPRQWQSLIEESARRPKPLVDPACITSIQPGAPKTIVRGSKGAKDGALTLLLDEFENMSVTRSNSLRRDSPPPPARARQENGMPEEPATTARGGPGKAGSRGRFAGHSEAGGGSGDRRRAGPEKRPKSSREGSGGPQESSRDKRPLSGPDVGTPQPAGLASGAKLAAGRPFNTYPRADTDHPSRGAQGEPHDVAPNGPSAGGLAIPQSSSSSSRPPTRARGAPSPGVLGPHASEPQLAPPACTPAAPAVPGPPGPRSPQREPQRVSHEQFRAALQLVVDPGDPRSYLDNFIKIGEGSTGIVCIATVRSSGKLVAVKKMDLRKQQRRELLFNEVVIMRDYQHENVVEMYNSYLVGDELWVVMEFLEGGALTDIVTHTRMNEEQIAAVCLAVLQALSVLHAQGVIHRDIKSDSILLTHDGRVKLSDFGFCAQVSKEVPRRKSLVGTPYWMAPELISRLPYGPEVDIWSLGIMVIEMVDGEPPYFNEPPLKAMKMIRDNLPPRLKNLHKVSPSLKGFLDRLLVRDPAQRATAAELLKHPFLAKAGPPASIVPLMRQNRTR

## CN1Cc2nccc(-c3cn(C)nc3-c3ccc(F)cc3)c2C1=O
[1]
  % of inhibition: 7%

## O=C(NOC[C@H](O)CO)c1ccc(F)c(F)c1Nc1ccc(I)cc1F
[2]
  % of control: 95%

## CC(=O)c1cc(-c2ccccc2OCC2CC2)c2ncccn12
D(2) dopamine receptor
  % of control: 92%

## Nc1cnc(N2CCc3cc(S(=O)(=O)Nc4c(F)cc(Cl)cc4F)cc(N4CCCC4=O)c32)nc1 [TP-020n]
[3]
  % of control: 77%
[4]
  % of control: 100%

## CCN(CC)CCCCNc1ncc2cc(-c3cc(OC)cc(OC)c3)c(NC(=O)NC(C)(C)C)nc2n1
[5]
  % of control: 100%

## Cc1cc(CN)cc(C)c1-c1ncn(C)c1-c1cncn1C
Peregrin (Homo sapiens)
  dTM: -1.98 K

## CC[C@@H]1[C@H](F)C(=O)N[C@@H]1COc1nccc2cc(C(N)=O)c(OC)cc12 [ZIMLOVISERTIB]
[6]
  % of inhibition: 17%
[7]
  % of inhibition: 5.6%
[8]; at 0.01 µM
  % of inhibition: -2.2%
[8]; at 0.04 µM
  % of inhibition: 1.5%
[8]; at 0.2 µM
  % of inhibition: -2.2%
[8]; at 1 µM
  % of inhibition: 2%
[8]; at 5 µM
  % of inhibition: -1.4%
[9]
  % of inhibition: -2.1%

## CN(C)C/C=C/C(=O)Nc1ccc(C(=O)N2CCCC(Nc3ncc(Cl)c(-c4c[nH]c5ccccc45)n3)C2)cc1 (stereo unspecified)
[10]
  % of control: 100%

## CN(C)CCOc1ccc(-c2nc(-c3ccncc3)c(-c3ccc4c(c3)CC/C4=N\O)[nH]2)cc1
[11]
  % of control: 8.6%
[12]
  % of control: 72%
[13]
  % of control: 37%
[14]
  % of control: 1.3%
[15]
  % of control: 11%
[16]
  % of control: 3%
[17]
  % of control: 1.6%
[18]
  % of control: 9.1%
[19]
  % of control: 10%

## CNC(=O)Nc1ccc(-c2nc(N3CC4CCC(C3)O4)c3cnn(C4CCC5(CC4)OCCO5)c3n2)cc1
[20]
  % of control: 100%
